Test results as given in patent US9018215B2, “Heteroaromatic compounds, medicaments containing said compounds, use thereof and processes for the preparation thereof” (Boehringer Ingelheim International GmbH, priority 2013, dated 2015).

The compounds below were run against T1, ENaC (Epithelial Sodium Channel) (Mus musculus, UniProt Q61180+Q9WU38+Q9WU39) (assay: Ussing chamber assay: short circuit current (I_sc) in M-1 cells, inhibition of the amiloride sensitive I_SC). Conditions: Mouse kidney M-1 cells on transwell filters, compounds added to the apical solution, 37° C., voltage-clamp mode.
T1 construct: Mouse kidney M-1 cells were cultivated in DMEM containing 5% FCS and 5 μM dexamethasone; endogenous in cells; host or cells: mouse kidney M-1 cells
T1 sequence (Q61180 1-699): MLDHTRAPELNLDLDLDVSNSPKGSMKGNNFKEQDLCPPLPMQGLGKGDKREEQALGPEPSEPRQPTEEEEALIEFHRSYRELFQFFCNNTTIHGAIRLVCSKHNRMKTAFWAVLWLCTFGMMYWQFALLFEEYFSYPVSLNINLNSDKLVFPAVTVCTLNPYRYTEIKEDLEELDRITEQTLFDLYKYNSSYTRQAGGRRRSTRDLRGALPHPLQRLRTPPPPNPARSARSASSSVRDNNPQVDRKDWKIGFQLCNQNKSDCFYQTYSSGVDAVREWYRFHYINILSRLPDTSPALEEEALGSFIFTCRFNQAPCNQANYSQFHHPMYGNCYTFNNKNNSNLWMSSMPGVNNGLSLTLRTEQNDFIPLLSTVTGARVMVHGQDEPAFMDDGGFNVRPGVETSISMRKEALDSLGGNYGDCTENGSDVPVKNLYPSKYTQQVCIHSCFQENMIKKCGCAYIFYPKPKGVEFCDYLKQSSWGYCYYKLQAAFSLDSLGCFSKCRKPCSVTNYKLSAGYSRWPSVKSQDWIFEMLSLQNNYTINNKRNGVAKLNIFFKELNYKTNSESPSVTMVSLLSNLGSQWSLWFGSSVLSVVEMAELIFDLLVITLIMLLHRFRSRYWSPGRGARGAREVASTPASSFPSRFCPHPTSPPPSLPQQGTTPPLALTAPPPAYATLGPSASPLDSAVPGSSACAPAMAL
T1 sequence (Q9WU38 1-638): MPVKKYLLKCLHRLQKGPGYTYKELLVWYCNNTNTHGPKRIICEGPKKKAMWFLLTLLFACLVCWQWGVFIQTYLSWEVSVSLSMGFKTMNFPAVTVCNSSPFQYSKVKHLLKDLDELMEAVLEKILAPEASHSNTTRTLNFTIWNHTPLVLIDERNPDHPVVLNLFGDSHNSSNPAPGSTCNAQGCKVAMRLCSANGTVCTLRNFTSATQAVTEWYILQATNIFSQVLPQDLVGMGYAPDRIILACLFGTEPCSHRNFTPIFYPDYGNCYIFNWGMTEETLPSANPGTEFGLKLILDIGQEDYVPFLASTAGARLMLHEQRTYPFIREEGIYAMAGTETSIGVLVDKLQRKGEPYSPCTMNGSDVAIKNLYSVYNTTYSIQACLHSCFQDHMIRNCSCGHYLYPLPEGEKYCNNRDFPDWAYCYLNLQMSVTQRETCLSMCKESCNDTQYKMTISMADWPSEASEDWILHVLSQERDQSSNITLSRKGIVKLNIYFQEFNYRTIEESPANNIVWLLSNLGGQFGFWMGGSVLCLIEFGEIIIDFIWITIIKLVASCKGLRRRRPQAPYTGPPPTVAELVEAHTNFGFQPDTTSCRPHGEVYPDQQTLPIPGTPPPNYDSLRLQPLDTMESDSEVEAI
T1 sequence (Q9WU39 1-655): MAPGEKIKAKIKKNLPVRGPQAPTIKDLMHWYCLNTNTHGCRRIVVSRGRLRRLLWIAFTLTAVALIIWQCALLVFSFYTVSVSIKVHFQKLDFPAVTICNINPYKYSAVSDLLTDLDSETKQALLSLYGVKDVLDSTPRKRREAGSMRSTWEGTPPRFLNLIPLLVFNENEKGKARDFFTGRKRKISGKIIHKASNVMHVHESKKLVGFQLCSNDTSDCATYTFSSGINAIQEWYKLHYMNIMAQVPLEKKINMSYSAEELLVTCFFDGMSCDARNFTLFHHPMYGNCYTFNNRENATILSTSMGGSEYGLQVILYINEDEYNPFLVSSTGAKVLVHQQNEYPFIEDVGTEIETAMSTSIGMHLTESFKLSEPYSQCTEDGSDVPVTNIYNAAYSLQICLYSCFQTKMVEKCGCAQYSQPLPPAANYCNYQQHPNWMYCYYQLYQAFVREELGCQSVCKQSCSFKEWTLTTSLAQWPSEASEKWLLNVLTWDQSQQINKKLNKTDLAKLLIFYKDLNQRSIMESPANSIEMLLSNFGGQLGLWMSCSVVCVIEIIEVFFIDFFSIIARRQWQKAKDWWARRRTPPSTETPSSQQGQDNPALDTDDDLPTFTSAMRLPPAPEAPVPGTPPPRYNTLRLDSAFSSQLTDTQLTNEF
Format: cell-based
Protocol: Mouse kidney M-1 cells were cultivated in DMEM containing 5% FCS and 5 μM dexamethasone for 10 to 12 days on polyester transwell filters. Filters were inserted into a teflon-coated well-plate which fit into the in-house ussing chamber system. Prior to measurement the medium of M-1 cells was replaced with Caco-2 transport buffer (Invitrogen, Germany). During measurements, the Ussing chamber temperature was kept at 37° C. Short circuit currents (I_sc) were measured in the voltage-clamp mode using an in-house built amplifier (Boehringer Ingelheim, Biberach) with the software package Lab View for data acquisition and analysis. The transepithelial electrical resistance (TEER) was determined by the application of voltage steps of ±5 mV every 5 sec. Compounds were administered at a final concentration of 3 μM or at increasing concentrations (1-3-10 μM) to the apical solution. At the end of each experiment the amiloride sensitive I_SC was measured by adding 3 μM amiloride to the apical compartment. Results are expressed as inhibition in percent of the amiloride effect or as IC50. With the example compounds given above, the following IC50 values were determined in the Ussing Chamber assay: […]

Compound	IC50 [nM]
COC(=O)c1cc(CN2CCC(N/C(N)=N/C(=O)c3nc(Cl)c(N)nc3N)CC2)ccn1 [Example 1.1]	3
NC(=NC(=O)c1nc(Cl)c(N)nc1N)NC1CCN(Cc2ccnc(C(=O)N(CCO)CCO)c2)CC1 [Example 1.2]	10
NC(=NC(=O)c1nc(Cl)c(N)nc1N)NC1CCN(Cc2cn3cc(C(=O)NCCOCCO)ccc3n2)CC1 [Example 1.3]	18
NC(=NC(=O)c1nc(Cl)c(N)nc1N)NC1CCN(Cc2ccc(CCc3cccnc3)nc2)CC1 [Example 1.4]	3
NC(=NC(=O)c1nc(Cl)c(N)nc1N)NC1CCN(Cc2ccccn2)CC1 [Example 1.5]	15
NC(=NC(=O)c1nc(Cl)c(N)nc1N)NC1CCN(Cc2ccc(=O)n(Cc3cccnc3)c2)CC1 [Example 1.6]	9
COC(=O)c1ccc2nc(CN3CCC(NC(N)=NC(=O)c4nc(Cl)c(N)nc4N)CC3)cn2c1 [Example 1.7]	4
NC(=NC(=O)c1nc(Cl)c(N)nc1N)NC1CCN(Cc2cn3cc(C(=O)NCCO)ccc3n2)CC1 [Example 1.8]	11
NC(=NC(=O)c1nc(Cl)c(N)nc1N)NC1CCN(Cc2cscn2)CC1 [Example 1.9]	17
NC(=NC(=O)c1nc(Cl)c(N)nc1N)NC1CCN(Cc2nc3ccccc3c(=O)[nH]2)CC1 [Example 1.10]	4
COC(=O)c1ccc(CN2CCC(NC(N)=NC(=O)c3nc(Cl)c(N)nc3N)CC2)s1 [Example 1.11]	3
C#Cc1cncc(CN2CCC(NC(N)=NC(=O)c3nc(Cl)c(N)nc3N)CC2)c1 [Example 1.12]	4
NC(=NC(=O)c1nc(Cl)c(N)nc1N)NC1CCN(Cc2cn3cc(I)ccc3n2)CC1 [Example 1.13]	3
NC(=NC(=O)c1nc(Cl)c(N)nc1N)NC1CCN(Cc2ccnc(C(=O)NCCOCCO)c2)CC1 [Example 1.14]	4
NC(=NC(=O)c1nc(Cl)c(N)nc1N)NC1CCN(Cc2cn3ccccc3n2)CC1 [Example 1.15]	6
NC(=NC(=O)c1nc(Cl)c(N)nc1N)NC1CCN(Cc2nc3ccccc3[nH]2)CC1 [Example 1.16]	5
NC(=NC(=O)c1nc(Cl)c(N)nc1N)NC1CCN(Cc2ccc(Br)nc2)CC1 [Example 1.17]	5
COC(=O)c1cc(CN2CCC(N/C(N)=N/C(=O)c3nc(Br)c(N)nc3N)CC2)ccn1 [Example 1.19]	4
N/C(=N\C(=O)c1nc(Cl)c(N)nc1N)NC1CCN(Cc2ccc(=O)n(Cc3cn(Cc4ccccn4)nn3)c2)CC1 [Example 2.1]	6
N/C(=N\C(=O)c1nc(Cl)c(N)nc1N)NC1CCN(Cc2cncc(-c3cn(CCOCCOCCOCCO)nn3)c2)CC1 [Example 2.2]	12
N/C(=N\C(=O)c1nc(Cl)c(N)nc1N)NC1CCN(Cc2ccnc(C(=O)O)c2)CC1 [Example 3.1]	21
N/C(=N\C(=O)c1nc(Cl)c(N)nc1N)NC1CCN(Cc2ccc(C(=O)O)s2)CC1 [Example 3.2]	31
N/C(=N\C(=O)c1nc(Br)c(N)nc1N)NC1CCN(Cc2ccnc(C(=O)O)c2)CC1 [Example 4.1]	16
